In assay [1] the target is T1, Amine oxidase [flavin-containing] B (Homo sapiens, UniProt P27338).
T1 sequence (P27338 whole entry): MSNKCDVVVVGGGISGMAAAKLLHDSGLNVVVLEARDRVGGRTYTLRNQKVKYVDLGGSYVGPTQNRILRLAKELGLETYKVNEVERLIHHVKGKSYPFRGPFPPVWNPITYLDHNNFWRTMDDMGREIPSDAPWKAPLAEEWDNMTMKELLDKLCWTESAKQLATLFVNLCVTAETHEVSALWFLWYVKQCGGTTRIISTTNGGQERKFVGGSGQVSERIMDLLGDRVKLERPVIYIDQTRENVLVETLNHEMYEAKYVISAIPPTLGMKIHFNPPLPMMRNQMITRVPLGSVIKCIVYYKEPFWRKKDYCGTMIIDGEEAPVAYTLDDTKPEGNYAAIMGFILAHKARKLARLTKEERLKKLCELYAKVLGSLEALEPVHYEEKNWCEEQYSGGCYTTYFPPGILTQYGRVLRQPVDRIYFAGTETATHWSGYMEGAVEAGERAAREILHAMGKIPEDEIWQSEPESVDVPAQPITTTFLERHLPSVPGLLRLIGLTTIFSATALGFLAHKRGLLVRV
The experiment in a line: MAO Assay. The following applies: pH 7.4; 37 °C. On the procedure:
(§1) The reaction mixture (final volume 200 µL) contained 5 µg/mL MAO-A or MAO-B in a 50 mM sodium phosphate buffer pH 7.4, 1 mM p-tyramine (substrate for MAO-A) or 1 mM benzyl-amine (substrate for MAO-B), 1 U/mL HRP, and 200 µM AR was incubated, in the presence or absence of the inhibitors, at 37 °C for 45 min. The enzyme plus inhibitors were incubated at 37 °C for 20 min followed by the addition of the substrates, HRP and AR. The inhibitors were dissolved in 100% DMSO, and equivalent concentrations of DMSO alone (1-2%) were used as controls. Clorgyline (MAO-A inhibitor) or pargyline (MAO-B inhibitor) at 5 µM concentration was used as positive control for inhibition.

In assay [2] the target is T2, Amine oxidase [flavin-containing] A (Homo sapiens, UniProt P21397).
T2 sequence (P21397 whole entry): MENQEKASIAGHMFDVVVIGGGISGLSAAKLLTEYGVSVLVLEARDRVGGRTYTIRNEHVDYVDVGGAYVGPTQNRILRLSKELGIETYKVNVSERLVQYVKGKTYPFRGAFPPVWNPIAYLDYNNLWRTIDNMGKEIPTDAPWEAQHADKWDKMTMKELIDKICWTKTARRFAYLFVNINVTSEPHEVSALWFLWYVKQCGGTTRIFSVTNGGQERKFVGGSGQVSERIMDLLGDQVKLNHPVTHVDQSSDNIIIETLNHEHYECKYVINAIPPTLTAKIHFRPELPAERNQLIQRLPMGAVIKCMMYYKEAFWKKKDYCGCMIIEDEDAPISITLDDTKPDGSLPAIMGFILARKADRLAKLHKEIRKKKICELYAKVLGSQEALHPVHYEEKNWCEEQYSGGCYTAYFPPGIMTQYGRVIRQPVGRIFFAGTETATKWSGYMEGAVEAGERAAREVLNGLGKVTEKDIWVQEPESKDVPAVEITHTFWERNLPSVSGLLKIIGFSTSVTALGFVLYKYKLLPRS
The experiment in a line: MAO Assay. The conditions noted are these: pH 7.4; 37 °C. On the procedure: as §1

SMILES strings stand for the structures.

Consider `CC(C)C=C1C(=O)C(=O)c2ccccc2C1=O`, for which the Ki is 18 µM in assay [1] and 35 µM in assay [2].
On to `NCCCN(CCCC=Nc1cc(O)c2ccccc2c1O)Cc1ccccc1` [2‐({4‐[(3‐ aminopropyl)(benzyl)amino]butyl}amino)naphthalene‐ 1,4‐dione (Compound b2)], for which the Ki in assay [1] came out at 12 µM; in assay [2] it was 28 µM.
In the case of `CC(C)=Cc1c(N=CCCCN(CCCN)Cc2ccccc2)c(O)c2ccccc2c1O` [2‐({4‐[(3‐aminopropyl)(benzyl)amino]butyl}amino)‐3‐ (2‐methylprop‐1‐en‐1‐yl)naphthalene‐1,4‐dione (Compound c2)], the Ki is 58 µM in assay [1] and 63 µM in assay [2].
For `CC(C)=CCc1c(N=CCCCN(CCCN)Cc2ccccc2)c(O)c2ccccc2c1O` [2‐({4‐[(3‐aminopropyl)(benzyl)amino]butyl}amino)‐3‐ (3‐methylbut‐2‐en‐1‐yl)naphthalene‐1,4‐dione (Compound a2)] the same measures were 40 µM and 22 µM.
Compound `CC(C)=CCC1C(=O)C(=O)c2ccccc2C1=O` (centres undefined) [4-hydroxy-3-(3-methylbut-2-enyl)naphthalene-1,2-dione] came in with a Ki in assay [1] of 59 µM.

In general, Ki refers to the equilibrium dissociation constant of an inhibitor or competing ligand from its target.

Values taken from BindingDB's records for doi:10.1111/cbdd.12255 (Federal University of Rio De Janeiro, 2014).
